Reference: US8410144B2, “Substituted indolo-pyridinone compounds” (ArQule, Inc., priority 2009, dated 2013)

Key:
[1] = system: MDA-MB-231; test: MTS assay, MDA-MB-231 cells; format: cell-based; conditions: Homo sapiens, 72 hours, read-out: MDA-MB-231, MTS cell kill % inhibition
Description: (§1) Cells were maintained at 37° C., 5% CO2 in DMEM media supplemented with 1% fetal bovine serum, penicillin/streptomycin and fungizone (Invitrogen). Cells were seeded into 96-well tissue culture plates at 3000 per well and cultured at 37° C. for 18 hours. Test compounds were dissolved and diluted to 300× in DMSO then diluted 1:40 in DMEM. Cells were incubated with test compounds for 72 hours followed by incubation with tetrazolium compound (3-(4,5-dimethylthiazol-2-yl)-5-(3-carboxymethoxyphenyl)-2-(4-sulfophenyl)-2H-tetrazolium, inner salt; MTS) and the electron coupling reagent, phenazine methosulfate (PMS) for 4 hours. […] The ability of compounds to inhibit cell growth in this assay is correlated with the reduction of dehydrogenase enzyme activity found in metabolically active cells. The measurement of the absorbance of the formazan was assessed using an ENVISION™ (Perkin Elmer) microplate reader at 492 nm. The calculated IC50 value is the concentration of the test compound that causes a 50% decrease in the absorbance.

[2] = system: DLD-1; test: MTS assay, DLD-1 cells; format: cell-based; conditions: Homo sapiens, 72 hours, read-out: DLD-1, MTS cell kill % inhibition
Description: as §1

[3] = system: NCI-H1299; test: MTS assay, NCI-H1299 cells; format: cell-based; conditions: Homo sapiens, 72 hours, read-out: NCI-H1299, MTS cell kill % inhibition
Description: as §1

[4] = system: KATO III; test: MTS assay, KATO III cells; format: cell-based; conditions: Homo sapiens, 72 hours, read-out: KATO III, MTS cell kill % inhibition
Description: as §1

[5] = target: IGF-1R (Homo sapiens, UniProt P08069); test: IGFR1 activity assay (ELISA); format: biochemical; conditions: read-out: IGF-1R, PCT INH (30 μM), ELISA
Sequence of IGF-1R (P08069 31-1367): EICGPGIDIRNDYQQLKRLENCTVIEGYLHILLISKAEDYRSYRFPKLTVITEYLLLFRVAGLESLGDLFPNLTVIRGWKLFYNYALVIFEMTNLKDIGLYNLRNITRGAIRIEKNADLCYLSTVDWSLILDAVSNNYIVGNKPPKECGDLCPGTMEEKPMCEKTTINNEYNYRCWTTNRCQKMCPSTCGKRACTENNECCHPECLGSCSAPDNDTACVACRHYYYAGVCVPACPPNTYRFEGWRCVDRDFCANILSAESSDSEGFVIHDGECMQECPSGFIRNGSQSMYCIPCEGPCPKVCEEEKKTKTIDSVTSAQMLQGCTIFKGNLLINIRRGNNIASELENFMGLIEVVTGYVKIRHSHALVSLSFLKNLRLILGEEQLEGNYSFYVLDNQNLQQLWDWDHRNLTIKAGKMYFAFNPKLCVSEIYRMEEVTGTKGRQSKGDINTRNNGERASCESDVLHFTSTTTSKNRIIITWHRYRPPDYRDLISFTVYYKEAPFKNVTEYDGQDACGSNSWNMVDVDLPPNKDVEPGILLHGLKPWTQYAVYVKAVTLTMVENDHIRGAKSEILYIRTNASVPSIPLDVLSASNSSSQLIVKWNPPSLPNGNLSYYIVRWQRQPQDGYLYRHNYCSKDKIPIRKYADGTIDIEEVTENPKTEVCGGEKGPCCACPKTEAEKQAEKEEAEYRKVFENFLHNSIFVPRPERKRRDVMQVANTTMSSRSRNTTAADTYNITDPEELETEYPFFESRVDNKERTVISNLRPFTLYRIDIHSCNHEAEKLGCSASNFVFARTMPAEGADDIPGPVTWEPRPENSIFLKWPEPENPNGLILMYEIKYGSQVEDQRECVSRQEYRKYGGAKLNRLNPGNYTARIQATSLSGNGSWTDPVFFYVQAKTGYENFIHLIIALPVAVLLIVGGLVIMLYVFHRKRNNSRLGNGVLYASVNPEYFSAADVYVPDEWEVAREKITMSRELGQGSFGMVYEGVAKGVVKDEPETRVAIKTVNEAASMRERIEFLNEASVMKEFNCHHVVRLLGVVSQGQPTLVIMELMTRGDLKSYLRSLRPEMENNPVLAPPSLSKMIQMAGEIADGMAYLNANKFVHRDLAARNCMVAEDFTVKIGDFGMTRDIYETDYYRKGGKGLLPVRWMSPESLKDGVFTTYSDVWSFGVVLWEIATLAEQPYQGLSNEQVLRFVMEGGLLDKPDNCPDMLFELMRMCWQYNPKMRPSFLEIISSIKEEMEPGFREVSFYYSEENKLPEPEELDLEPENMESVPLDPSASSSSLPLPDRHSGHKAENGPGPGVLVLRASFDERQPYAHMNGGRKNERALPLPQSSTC
Description: The disclosed compounds were assayed for their ability to inhibit insulin-like growth factor receptor-1 (IGFR1). Nunc Maxisorb plates were coated with streptavidin by overnight incubation with 100 μL per well of 1 μg/ml Streptavidin in DPBS. Prior to the start of the experiment, the plates were washed with TBST (3×200 μL) and blocked for at least 1 hour by adding 150 μL of 5% BSA/TBST. The plates were washed with TBST (3×200 μL/well) and left to dry immediately before the capture step.
The disclosed test articles and controls (Staurosporine) were prepared using the following assay buffer at 3× desired final concentration (50 mM Tris-HCl, 0.02 mg/ml BSA, 10 mM MgCl2, 0.1 mM Na3VO4, 1 mM EGTA, 12.5 μM ATP, 0.01% NP-40, 1 mM DTT in 10% glycerol/water). 20 μL of the test compounds (or control), 20 μL IGF1R (0.33 ng/μL final concentration), and 20 μL of Pyk-2 (0.05 ng/μL final concentration) were rapidly added to the reaction plate. The plate was incubated at room temperature for one hour.
50 μL was transferred from the reaction plate to the streptavidin coated plate. The capture plate was incubated at room temperature for 30 minutes, then washed with TBST three times. 100 μL/well of Cell Signaling anti-phospho tyrosine was added to the capture plate at a dilution of 1:3000 in 2% BSA/TBST. The plate was incubated for one hour at room temperature then washed 6× with TBST. 100 μL/well of alkaline phosphatase tagged goat anti mouse antibody was added to the capture plate at a dilution of 1:4000 in 2% BSA/TBST. The plate was incubated for one hour at room temperature then washed with TBST six times.
The fluorescent readout is initiated by the addition of 100 μL/well of Attophos reagent (6 mg/10 mL). The reading is done on the Perkin Elmer Envision system.

Structure (SMILES)	inhibition at 30 µM [5] [%]	inhibition at 10 µM [1] [%]	inhibition at 10 µM [2] [%]	inhibition at 10 µM [3] [%]	inhibition at 10 µM [4] [%]
CN(C)CCCNC(=O)c1ccc2[nH]c(-c3ccc[nH]c3=O)c(-c3ccc(-c4ccccc4)cc3)c2c1 [Compound 49, 3-biphenyl-4-yl-N-[3-(dimethylamino)propyl]-2-(2-oxo-1,2-dihydropyridin-3-yl)-1H-indole-5-carboxamide]	–	80 to 100	80 to 100	80 to 100	80 to 100
O=C(NCc1ccc(F)cc1F)c1ccc2[nH]c(-c3ccc[nH]c3=O)c(-c3ccccc3)c2c1 [Compound 10, N-(2,4-difluorobenzyl)-2-(2-oxo-1,2-dihydropyridin-3-yl)-3-phenyl-1H-indole-5-carboxamide]	80 to 100	< 50	80 to 100	80 to 100	80 to 100
Cc1ccccc1-c1c(-c2ccc[nH]c2=O)[nH]c2ccc(C(=O)NCCCN3CCOCC3)cc12 [Compound 58, 3-(2-methylphenyl)-N-(3-morpholin-4-ylpropyl)-2-(2-oxo-1,2-dihydropyridin-3-yl)-1H-indole-5-carboxamide]	80 to 100	< 50	< 50	< 50	< 50
COCC(C)NC(=O)c1ccc2[nH]c(-c3ccc[nH]c3=O)c(-c3ccccc3)c2c1 (stereo not shown) [Compound 11, N-(2-methoxy-1-methylethyl)-2-(2-oxo-1,2-dihydropyridin-3-yl)-3-phenyl-1H-indole-5-carboxamide]	80 to 100	< 50	50 to 79	50 to 79	80 to 100

Continued, in another order:

inhibition at 30 µM [5] [%]	Structure (SMILES)	inhibition at 10 µM [1] [%]	inhibition at 10 µM [2] [%]	inhibition at 10 µM [3] [%]	inhibition at 10 µM [4] [%]
80 to 100	COc1cccc(CCNC(=O)c2ccc3[nH]c(-c4ccc[nH]c4=O)c(-c4ccccc4)c3c2)c1OC [Compound 19, N-[2-(2,3-dimethoxyphenyl)ethyl]-2-(2-oxo-1,2-dihydropyridin-3-yl)-3-phenyl-1H-indole-5-carboxamide]	80 to 100	80 to 100	80 to 100	80 to 100
80 to 100	O=C(NCCCN1CCOCC1)c1ccc2[nH]c(-c3ccc[nH]c3=O)c(-c3cccc(Cl)c3)c2c1 [Compound 62, 3-(3-chlorophenyl)-N-(3-morpholin-4-ylpropyl)-2-(2-oxo-1,2-dihydropyridin-3-yl)-1H-indole-5-carboxamide]	80 to 100	80 to 100	80 to 100	80 to 100
< 50	O=C(NCc1ccccc1)c1ccc2[nH]c(-c3ccc[nH]c3=O)c(-c3ccc(-c4ccccc4)cc3)c2c1 [Compound 40, N-benzyl-3-biphenyl-4-yl-2-(2-oxo-1,2-dihydropyridin-3-yl)-1H-indole-5-carboxamide]	< 50	< 50	50 to 79	< 50
80 to 100	COc1ccc(-c2c(-c3ccc[nH]c3=O)[nH]c3ccc(C(=O)NCCCN4CCOCC4)cc23)c(OC)c1 [Compound 81, 3-(2,4-dimethoxyphenyl)-N-(3-morpholin-4-ylpropyl)-2-(2-oxo-1,2-dihydropyridin-3-yl)-1H-indole-5-carboxamide]	–	< 50	< 50	< 50
80 to 100	O=C(NC1CCC1)c1ccc2[nH]c(-c3ccc[nH]c3=O)c(-c3ccccc3)c2c1 [Compound 26, N-cyclobutyl-2-(2-oxo-1,2-dihydropyridin-3-yl)-3-phenyl-1H-indole-5-carboxamide]	80 to 100	80 to 100	80 to 100	80 to 100
